# Experimental data reported in patent US20230278972A1, “SUBSTITUTED HALOALKYL SULFONANILIDE HERBICIDES” (FMC Corporation, priority 2020, published 2023).
# Assays:
# Assay type in all cases: in vivo
# [1] = system: barnyardgrass (Echinochloa crus-galli); assay: Test A preemergence, barnyardgrass; settings: Preemergence; for Plant response rating, Barnyardgrass: 0 to 100 scale (0 no effect, 100 complete control); for Barnyardgrass plant response rating: 125 g ai/ha, visual injury on 0 to 100 scale (0 no effect, 100 complete control), approximately 10 days
# Summary of the method: (§1)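 Whole-plant herbicidal screen in pots of loam blended with sand. Sprays used a surfactant-containing, non-phytotoxic solvent vehicle. Timing was preemergence soil-directed at planting or postemergence at the one- to two-leaf stage (2–10 cm).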
# [2] = system: kochia (Bassia scoparia); assay: Test A preemergence, kochia; settings: Preemergence; for Plant response rating, Kochia: 0 to 100 scale (0 no effect, 100 complete control); for Kochia plant response rating: 125 g ai/ha, visual injury on 0 to 100 scale (0 no effect, 100 complete control), approximately 10 days
# Summary of the method: as §1
# [3] = system: ragweed (common ragweed, Ambrosia artemisiifolia); assay: Test A preemergence, ragweed; settings: Preemergence; for Plant response rating, Ragweed: 0 to 100 scale (0 no effect, 100 complete control); for Ragweed plant response rating: 125 g ai/ha, visual injury on 0 to 100 scale (0 no effect, 100 complete control), approximately 10 days
# Summary of the method: as §1
# [4] = system: Ryegrass, Italian (Italian ryegrass, Lolium multiflorum); assay: Test A preemergence, Ryegrass, Italian; settings: Preemergence; for Plant response rating, Ryegrass, Italian: 0 to 100 scale (0 no effect, 100 complete control); for Ryegrass, Italian plant response rating: 125 g ai/ha, visual injury on 0 to 100 scale (0 no effect, 100 complete control), approximately 10 days
# Summary of the method: as §1
# [5] = system: Foxtail, Giant (giant foxtail, Setaria faberi); assay: Test A preemergence, Foxtail, Giant; settings: Preemergence; for Plant response rating, Foxtail, Giant: 0 to 100 scale (0 no effect, 100 complete control); for Foxtail, Giant plant response rating: 125 g ai/ha, visual injury on 0 to 100 scale (0 no effect, 100 complete control), approximately 10 days
# Summary of the method: as §1
# [6] = system: pigweed (Amaranthus retroflexus); assay: Test A preemergence, pigweed; settings: for Plant response rating, Pigweed: 0 to 100 scale (0 no effect, 100 complete control); for Pigweed plant response rating: 125 g ai/ha, visual injury on 0 to 100 scale (0 no effect, 100 complete control), approximately 10 days
# Summary of the method: (§2)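 Compounds in non-phytotoxic solvent with surfactant. Soil: loam/sand. Preemergence via directed soil spray after seeding; postemergence on seedlings 2–10 cm, one- to two-leaf.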
# [7] = system: barnyardgrass (Echinochloa crus-galli); assay: Test A postemergence, barnyardgrass; settings: Postemergence, 0 to 100 scale (0 no effect, 100 complete control)
# Summary of the method: as §2
# [8] = system: kochia (Bassia scoparia); assay: Test A postemergence, kochia; settings: Postemergence
# Summary of the method: as §1
# [9] = system: ragweed (common ragweed, Ambrosia artemisiifolia); assay: Test A postemergence, ragweed; settings: Postemergence
# Summary of the method: as §1
# [10] = system: Ryegrass, Italian (Italian ryegrass, Lolium multiflorum); assay: Test A postemergence, Ryegrass, Italian; settings: Postemergence
# Summary of the method: as §1
# [11] = system: Foxtail, Giant (giant foxtail, Setaria faberi); assay: Test A postemergence, Foxtail, Giant; settings: Postemergence
# Summary of the method: as §1
# [12] = system: pigweed (Amaranthus retroflexus); assay: Test A postemergence, pigweed; settings: Postemergence
# Summary of the method: as §1
# [13] = system: wheat (Triticum aestivum); assay: Test A postemergence, wheat; settings: Postemergence
# Summary of the method: as §2
# [14] = system: corn (Zea mays); assay: Test A postemergence, corn; settings: Postemergence
# Summary of the method: as §1
# [15] = system: blackgrass (Alopecurus myosuroides); assay: Test A postemergence, blackgrass; settings: Postemergence, 0 to 100 scale (0 no effect, 100 complete control)
# Summary of the method: as §1
# [16] = system: galium (catchweed bedstraw, Galium aparine); assay: Test A postemergence, galium; settings: Postemergence
# Summary of the method: as §2
# [17] = 31 g ai/ha, visual injury, approx. 10 days
# [18] = 125 g ai/ha, visual injury approx. 10 days
# [19] = 31 g ai/ha, 0 to 100 scale (0 no effect, 100 complete control)
# [20] = 125 g ai/ha, visual injury approx. 10 days, 0 to 100 scale (0 no effect, 100 complete control)
# [21] = 31 g ai/ha, visual injury on 0 to 100 scale (0 no effect, 100 complete control), approx. 10 days
# [22] = 500 g ai/ha, visual injury vs untreated controls after approx. 10 days
# [23] = 125 g ai/ha, 0 to 100 scale (0 no effect, 100 complete control)
# [24] = 500 g ai/ha, visual injury vs untreated controls after approx. 10 days, 0 to 100 scale (0 no effect, 100 complete control)
smiles,measurement,setting,value
COC1CCCN(C(=O)c2cc(N(COC(C)=O)S(=O)(=O)C(F)(F)F)c(C)cc2C)C1 (stereo not drawn) [Compound 96],"Plant response rating, Barnyardgrass",[1]; [17],10
same,Barnyardgrass plant response rating,[1],70
same,"Plant response rating, Kochia",[2]; [17],0
same,Kochia plant response rating,[2],0
same,"Plant response rating, Ragweed",[3]; [17],0
same,Ragweed plant response rating,[3],30
same,"Plant response rating, Ryegrass, Italian",[4]; [17],0
same,"Ryegrass, Italian plant response rating",[4],80
same,"Plant response rating, Foxtail, Giant",[5]; [17],40
same,"Foxtail, Giant plant response rating",[5],80
same,"Plant response rating, Pigweed",[6]; [17],20
same,Pigweed plant response rating,[6],90
same,"Plant response rating, Barnyardgrass",[7]; 31 g ai/ha,0
same,"Plant response rating, Barnyardgrass",[7]; [18],30
same,"Plant response rating, Kochia",[8]; [19],10
same,"Plant response rating, Kochia",[8]; [20],20
same,"Plant response rating, Ragweed",[9]; [19],30
same,"Plant response rating, Ragweed",[9]; [20],40
same,"Plant response rating, Ryegrass, Italian",[10]; [19],0
same,"Plant response rating, Ryegrass, Italian",[10]; [20],20
same,"Plant response rating, Foxtail, Giant",[11]; [19],0
same,"Plant response rating, Foxtail, Giant",[11]; [20],10
same,"Plant response rating, Pigweed",[12]; [19],30
same,"Plant response rating, Pigweed",[12]; [20],30
same,"Plant response rating, Wheat",[13]; [19],0
same,"Plant response rating, Wheat",[13]; [20],40
same,"Plant response rating, Corn",[14]; [19],10
same,"Plant response rating, Corn",[14]; [20],10
same,"Plant response rating, Blackgrass",[15]; 31 g ai/ha,0
same,"Plant response rating, Blackgrass",[15]; [18],0
same,"Plant response rating, Galium",[16]; [19],80
same,"Plant response rating, Galium",[16]; [20],80
Cc1cc(C)c(C(=O)N2COC(C)(C)C2)cc1NS(=O)(=O)C(F)(F)F [Compound 112],"Plant response rating, Barnyardgrass",[1]; [17],20
same,Barnyardgrass plant response rating,[1],30
same,"Plant response rating, Kochia",[2]; [17],10
same,Kochia plant response rating,[2],60
same,"Plant response rating, Ragweed",[3]; [17],30
same,Ragweed plant response rating,[3],90
same,"Plant response rating, Ryegrass, Italian",[4]; [17],0
same,"Ryegrass, Italian plant response rating",[4],30
same,"Foxtail, Giant plant response rating",[5],50
same,"Plant response rating, Pigweed",[6]; [17],50
same,Pigweed plant response rating,[6],100
same,"Plant response rating, Barnyardgrass",[7]; 31 g ai/ha,40
same,"Plant response rating, Barnyardgrass",[7]; [18],70
same,"Plant response rating, Kochia",[8]; [21],20
same,"Plant response rating, Kochia",[8]; [20],30
same,"Plant response rating, Ragweed",[9]; [21],80
same,"Plant response rating, Ragweed",[9]; [20],90
same,"Plant response rating, Ryegrass, Italian",[10]; [21],0
same,"Plant response rating, Ryegrass, Italian",[10]; [20],60
same,"Plant response rating, Foxtail, Giant",[11]; [21],10
same,"Plant response rating, Foxtail, Giant",[11]; [20],50
same,"Plant response rating, Pigweed",[12]; [21],50
same,"Plant response rating, Pigweed",[12]; [20],60
same,"Plant response rating, Wheat",[13]; [21],0
same,"Plant response rating, Wheat",[13]; [20],40
same,"Plant response rating, Corn",[14]; [21],0
same,"Plant response rating, Corn",[14]; [20],20
same,"Plant response rating, Blackgrass",[15]; 31 g ai/ha,0
same,"Plant response rating, Blackgrass",[15]; [18],30
same,"Plant response rating, Galium",[16]; [21],90
same,"Plant response rating, Galium",[16]; [20],90
Cc1cc(C)c(C2=NOC3CCCCC23)cc1NS(=O)(=O)C(F)(F)F (stereo not drawn) [Compound 131],"Plant response rating, Barnyardgrass",[1]; [17],70
same,Barnyardgrass plant response rating,[1],90
same,"Plant response rating, Kochia",[2]; [17],30
same,Kochia plant response rating,[2],40
same,"Plant response rating, Ragweed",[3]; [17],0
same,Ragweed plant response rating,[3],40
same,"Plant response rating, Ryegrass, Italian",[4]; [17],30
same,"Ryegrass, Italian plant response rating",[4],80
same,"Plant response rating, Foxtail, Giant",[5]; [17],90
same,"Foxtail, Giant plant response rating",[5],100
same,"Plant response rating, Pigweed",[6]; [17],30
same,Pigweed plant response rating,[6],90
same,"Plant response rating, Barnyardgrass",[7]; 31 g ai/ha,20
same,"Plant response rating, Barnyardgrass",[7]; [18],80
same,"Plant response rating, Kochia",[8]; [21],40
same,"Plant response rating, Kochia",[8]; [20],60
same,"Plant response rating, Ragweed",[9]; [21],30
same,"Plant response rating, Ryegrass, Italian",[10]; [21],0
same,"Plant response rating, Foxtail, Giant",[11]; [21],0
same,"Plant response rating, Foxtail, Giant",[11]; [20],10
same,"Plant response rating, Pigweed",[12]; [21],50
same,"Plant response rating, Wheat",[13]; [21],0
same,"Plant response rating, Corn",[14]; [21],0
same,"Plant response rating, Corn",[14]; [20],20
same,"Plant response rating, Blackgrass",[15]; 31 g ai/ha,20
same,"Plant response rating, Blackgrass",[15]; [18],0
same,"Plant response rating, Galium",[16]; [21],60
same,"Plant response rating, Galium",[16]; [20],90
C#CCN(CC#C)C(=O)c1cc(N(S(=O)(=O)C(F)(F)F)S(=O)(=O)C(F)(F)F)c(C)cc1C [Compound 181],Barnyardgrass plant response rating,[1],90
same,"Plant response rating, Barnyardgrass",[1]; 500 g ai/ha,100
same,Kochia plant response rating,[2],60
same,"Plant response rating, Kochia",[2]; 500 g ai/ha,100
same,Ragweed plant response rating,[3],50
same,"Plant response rating, Ragweed",[3]; 500 g ai/ha,90
same,"Ryegrass, Italian plant response rating",[4],80
same,"Plant response rating, Ryegrass, Italian",[4]; 500 g ai/ha,90
same,"Foxtail, Giant plant response rating",[5],100
same,"Plant response rating, Foxtail, Giant",[5]; 500 g ai/ha,100
same,Pigweed plant response rating,[6],40
same,"Plant response rating, Pigweed",[6]; 500 g ai/ha,80
same,"Plant response rating, Barnyardgrass",[7]; 125 g ai/ha,80
same,Barnyardgrass plant response rating,[7]; [22],90
same,"Plant response rating, Kochia",[8]; [23],30
same,Kochia plant response rating,[8]; [24],80
same,"Plant response rating, Ragweed",[9]; [23],80
same,Ragweed plant response rating,[9]; [24],90
same,"Plant response rating, Ryegrass, Italian",[10]; [23],70
same,"Ryegrass, Italian plant response rating",[10]; [24],90
same,"Plant response rating, Foxtail, Giant",[11]; [23],60
same,"Foxtail, Giant plant response rating",[11]; [24],90
same,"Plant response rating, Pigweed",[12]; [23],40
same,Pigweed plant response rating,[12]; [24],80
same,"Plant response rating, Wheat",[13]; [23],50
same,Wheat plant response rating,[13]; [24],80
same,"Plant response rating, Corn",[14]; [23],10
same,Corn plant response rating,[14]; [24],80
same,"Plant response rating, Blackgrass",[15]; 125 g ai/ha,10
same,Blackgrass plant response rating,[15]; [22],30
same,"Plant response rating, Galium",[16]; [23],60
same,Galium plant response rating,[16]; [24],70
